{
  "source": "patent US20070233400A1",
  "about": "“Method of calculating environmental risk of a chemical” (AMSTED Industries Incorporated, priority 2006, published 2007)",
  "key": {"[1]": {"conditions": "oral pathway; more conservative of carcinogenic or chronic value; published sources; cited from earlier work"}, "[2]": {"conditions": "published sources; cited from earlier work"}, "[3]": {"conditions": "sand", "source_text": "Mobility it defined as the ability of a chemical to migrate in the environment. Mobility of a chemical in the environment is governed by two factors that include the physical chemistry of the chemical and the physical and chemical characteristics of the geologic environment to which the chemical is released.\nTo obtain a value to represent the mobility of each compound, two variables are used: Henry's Law constant (H), which focuses on the physical chemistry of the chemical and the retardation factor (R), which focuses on the physical and chemical characteristics of the geological environment. The retardation factor was calculated by first calculating the distribution coefficient using Equation 1. Kd=(Foc)(Koc) where: Kd=distribution coefficient (mL·g^−1); Koc=organic carbon partition coefficient (1/mg); Foc=fraction of organic carbon in soil (mg/mg)\nValues for the organic carbon partition coefficient can be obtained from location-specific testing of soil or from various published sources. And the fraction of organic carbon in soil can be obtained from location-specific testing of soil or from various published sources.\nOnce the distribution coefficient is calculated, the Retardation Factor can be calculated using Equation 2. [formula] where: R is the retardation factor; ρb=bulk density of aquifer matrix (g/cm^3); Kd=distribution coefficient (mL·g^−1); η=effective porosity Henry's Law constant (H) (atm.·mol^−1·m^−3) is a measure of the tendency for organic solutes to volatilize. It is related to vapor pressure (VP) (atm.), molecular weight (MW) (g/mol); and solubility in water (Ws) (g/L) according to Equation (3): H=(VP)/(MW)(Ws) With Henry's Law constant and the retardation factor in place, the mobility of a specific compound is expressed as Equation (4): M=(H)(R) where: M=mobility; H=Henry's Law constant; R=retardation factor"}},
  "data": [
    {"smiles": "c1ccccc1", "note": "[benzene]", "values": [
      {"measurement": "toxicity value (T)", "setting": "[1]", "result": 0.04, "unit": "mg/kg-day^−1"},
      {"measurement": "Henry's Law constant (H)", "setting": "[2]", "result": 0.228, "unit": "atm.·mol^−1·m^−3"},
      {"measurement": "mobility factor (M)", "setting": "[3]; M=(H)(R)", "result": 0.2576},
      {"measurement": "distribution coefficient (Kd)", "setting": "[3]; Foc 0.0003 mg/mg, Kd=Foc×Koc", "result": 0.0177, "unit": "mL/g"},
      {"measurement": "retardation factor (R)", "setting": "[3]; bulk density 1.8 g/cm^3, effective porosity 0.25", "result": 1.13}
    ]}
  ]
}
